In ChEMBL document CHEMBL1201862, “PubChem BioAssay data set” (2004):
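96-well plates; 48 h exposure; 5 concentrations. Endpoints by linear interpolation between flanking doses. Not reached: highest tested concentration assigned. GI50 marks 50% less growth.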 The source made the active and inactive calls. Cut-off read from the data, not from the text of the source: active = GI50 up to about 1.1 µM and inactive = higher.

Tests used:
Test in all cases: NCI-60 cell line screen, 48 h
UACC-257 = test system: UACC-257
NCI/ADR-RES = test system: NCI/ADR-RES
MCF7 = test system: MCF7
DU-145 = test system: DU-145
MDA-MB-231 = test system: MDA-MB-231
M14 = test system: M14
SW-620 = test system: SW-620
HCC 2998 = test system: HCC 2998
SNB-19 = test system: SNB-19
K562 = test system: K562
TK-10 = test system: TK-10
T47D = test system: T47D
NCI-H23 = test system: NCI-H23
CCRF-CEM = test system: CCRF-CEM
SK-OV-3 = test system: SK-OV-3
786-0 = test system: 786-0
OVCAR-8 = test system: OVCAR-8
NCI-H226 = test system: NCI-H226
HL-60 = test system: HL-60
SR = test system: SR

SMILES	GI50 (UACC-257)	GI50 (NCI/ADR-RES)	GI50 (MCF7)	GI50 (DU-145)	GI50 (MDA-MB-231)	GI50 (M14)	GI50 (SW-620)	GI50 (HCC 2998)	GI50 (SNB-19)	GI50 (K562)	GI50 (TK-10)	GI50 (T47D)	GI50 (NCI-H23)	GI50 (CCRF-CEM)	GI50 (SK-OV-3)	GI50 (786-0)	GI50 (OVCAR-8)	GI50 (NCI-H226)	GI50 (HL-60)	GI50 (SR)
OCCSCc1cc(Cl)cc(Cl)c1O	> 100 µM (inactive)	> 100 µM (inactive)	> 100 µM (inactive)	> 100 µM (inactive)	> 100 µM (inactive)	> 100 µM (inactive)	> 100 µM (inactive)	> 100 µM (inactive)	> 100 µM (inactive)	> 100 µM (inactive)	> 100 µM (inactive)	> 100 µM (inactive)	> 100 µM (inactive)	> 100 µM (inactive)	> 100 µM (inactive)	> 100 µM (inactive)	> 100 µM (inactive)	61.7 µM (inactive)	–	–
NC(=O)C/C=C/CC(N)=O	> 100 µM (inactive)	> 100 µM (inactive)	> 100 µM (inactive)	> 100 µM (inactive)	> 100 µM (inactive)	> 100 µM (inactive)	> 100 µM (inactive)	> 100 µM (inactive)	> 100 µM (inactive)	–	> 100 µM (inactive)	> 100 µM (inactive)	> 100 µM (inactive)	> 100 µM (inactive)	> 100 µM (inactive)	> 100 µM (inactive)	> 100 µM (inactive)	> 100 µM (inactive)	> 100 µM (inactive)	–
COc1cc2nc3n(c(=O)c2cc1OC)CCCCC3	> 100 µM (inactive)	> 100 µM (inactive)	> 100 µM (inactive)	> 100 µM (inactive)	> 100 µM (inactive)	> 100 µM (inactive)	> 100 µM (inactive)	–	–	> 100 µM (inactive)	> 100 µM (inactive)	> 100 µM (inactive)	> 100 µM (inactive)	94.2 µM (inactive)	> 100 µM (inactive)	> 100 µM (inactive)	> 100 µM (inactive)	> 100 µM (inactive)	> 100 µM (inactive)	> 100 µM (inactive)
Cc1c(/C=N\NC(=S)N(C)CCN(C)C(=S)N/N=C\c2c(C)n(C)n(-c3ccccc3)c2=O)c(=O)n(-c2ccccc2)n1C	> 100 µM (inactive)	> 100 µM (inactive)	–	> 100 µM (inactive)	> 100 µM (inactive)	> 100 µM (inactive)	> 100 µM (inactive)	> 100 µM (inactive)	> 100 µM (inactive)	–	> 100 µM (inactive)	> 100 µM (inactive)	> 100 µM (inactive)	–	> 100 µM (inactive)	> 100 µM (inactive)	–	> 100 µM (inactive)	–	35.3 µM (inactive)
O=c1[nH]c2ccccc2nc1CBr	13.2 µM (inactive)	19.7 µM (inactive)	–	19.2 µM (inactive)	11.2 µM (inactive)	10.6 µM (inactive)	4.19 µM (inactive)	20.6 µM (inactive)	23.5 µM (inactive)	2.24 µM (inactive)	13.8 µM (inactive)	12.5 µM (inactive)	14.6 µM (inactive)	0.399 µM (active)	21.5 µM (inactive)	2.02 µM (inactive)	13.8 µM (inactive)	15.8 µM (inactive)	0.213 µM (active)	0.415 µM (active)
CCOC(=O)c1ccc(/N=C2\Sc3nc4ccccc4n3\C2=N\c2ccc(C(=O)OCC)cc2)cc1	31.5 µM (inactive)	22.1 µM (inactive)	8.83 µM (inactive)	28.9 µM (inactive)	22.5 µM (inactive)	16 µM (inactive)	21.5 µM (inactive)	41.8 µM (inactive)	12.1 µM (inactive)	–	17.3 µM (inactive)	48.1 µM (inactive)	22.6 µM (inactive)	> 100 µM (inactive)	40.8 µM (inactive)	11.8 µM (inactive)	29.4 µM (inactive)	29.2 µM (inactive)	> 100 µM (inactive)	–
COc1cccc(C2c3cc4c(cc3OC(NNc3ccccc3)C2C)OCO4)c1OC (centres undefined)	5.06 µM (inactive)	–	4.73 µM (inactive)	5.19 µM (inactive)	17.5 µM (inactive)	5.06 µM (inactive)	19.1 µM (inactive)	2.29 µM (inactive)	17.6 µM (inactive)	1.49 µM (inactive)	2.61 µM (inactive)	5.09 µM (inactive)	10.7 µM (inactive)	3.72 µM (inactive)	49.1 µM (inactive)	19.4 µM (inactive)	7.6 µM (inactive)	5.06 µM (inactive)	4.05 µM (inactive)	1.06 µM (active)
CC(C)(C)n1c(=O)n2n(c1=O)C1c3cccc4cccc(c34)C2C2c3cccc4cccc(c34)C1n1c(=O)n(C(C)(C)C)c(=O)n12	> 100 µM (inactive)	> 100 µM (inactive)	> 100 µM (inactive)	80.2 µM (inactive)	32.9 µM (inactive)	> 100 µM (inactive)	90.4 µM (inactive)	64.3 µM (inactive)	> 100 µM (inactive)	87.5 µM (inactive)	93.5 µM (inactive)	44.9 µM (inactive)	95.7 µM (inactive)	32.7 µM (inactive)	96.8 µM (inactive)	> 100 µM (inactive)	86.9 µM (inactive)	84.1 µM (inactive)	30.5 µM (inactive)	–
